The values that follow come from paper PMC8496750, “Identification of the organic anion transporting polypeptides responsible for the hepatic uptake of the major metabolite of epyrifenacil, S‐3100‐CA, in mice” (Pharmacology Research & Perspectives, 2021).

The target in one data set is T1, rat Oatp1a4 (Rattus norvegicus, UniProt O35913).
T1 sequence (O35913 1-661): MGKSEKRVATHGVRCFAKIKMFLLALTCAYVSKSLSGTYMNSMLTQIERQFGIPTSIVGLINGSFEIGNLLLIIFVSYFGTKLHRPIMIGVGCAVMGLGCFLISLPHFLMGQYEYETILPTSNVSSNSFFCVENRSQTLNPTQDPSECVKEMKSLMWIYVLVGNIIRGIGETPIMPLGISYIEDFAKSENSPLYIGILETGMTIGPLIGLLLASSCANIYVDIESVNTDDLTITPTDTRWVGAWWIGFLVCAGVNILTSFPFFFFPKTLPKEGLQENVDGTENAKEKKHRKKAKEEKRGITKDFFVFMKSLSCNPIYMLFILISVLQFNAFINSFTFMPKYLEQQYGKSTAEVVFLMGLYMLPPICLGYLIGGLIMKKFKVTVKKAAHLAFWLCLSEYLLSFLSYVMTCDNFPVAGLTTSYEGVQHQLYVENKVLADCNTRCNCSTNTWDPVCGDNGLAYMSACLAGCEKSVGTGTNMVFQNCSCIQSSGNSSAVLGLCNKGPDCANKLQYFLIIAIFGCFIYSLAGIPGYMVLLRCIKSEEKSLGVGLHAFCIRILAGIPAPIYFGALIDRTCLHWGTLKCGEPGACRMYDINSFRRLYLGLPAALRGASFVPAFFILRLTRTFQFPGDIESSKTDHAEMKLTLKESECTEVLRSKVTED
Briefly: Uptake assay for radiolabeled substrates, rat Oatp1a4 expressing 293FT cells. As to conditions: 10‐min incubation. The method, then:
(§1) 293FT cells were purchased from Thermo Fisher Scientific, Inc.. The cells were grown in Dulbecco's modified Eagle medium (supplemented with 4.5 g/L glucose and 2 mM L‐glutamine) at 37°C, 5% CO2, and 95% humidity. The cells were passaged 3 times per week by harvesting cells using trypsin and plating at a density of 1.0 × 10^4 cells/cm^2 in a 10 cm cell culture plate for maintenance culture. The 293FT cells were detached using trypsin and re‐seeded at a density of 2.5 × 10^4 cells/cm^2 in BioCoat™ Collagen I 6‐well plates (Corning Inc.) for transfection and then treated with 1.2 μg of plasmid vector and 3.2 μl of Lipofectamine™ 2000 Transfection Reagent (Thermo Fisher Scientific, Inc.) according to the manufacturer's instructions. After a 3‐h treatment, the transfection medium was replaced with a fresh cell culture medium and incubated at 37°C with 95% humidity and 5% CO2 until ready for the assay.
(§2) Transport experiments were conducted approximately 24 h post‐transfection. The experiments were initiated by aspirating culture medium and addition of pre‐warmed radiolabeled substrate solution (final 1.0% of acetonitrile or 0.9% of ethanol in phosphate‐buffered saline (PBS[−])) to each well. After a 10‐min incubation, cells were washed twice with 1 ml of ice‐cold PBS(−) and lysed with 700 μl of 1.0 M NaOH for 3 h or more at room temperature. The lysate was transferred to a 1.5‐ml tube, and neutralized with 350 μl of 2.0 M HCl and 350 μl of 2.0% sodium dodecyl sulfate (SDS) solution. From the lysate, 1.0 ml was transferred to a vial containing 10 ml of Emulsifier Scintillator Plus to measure the radioactivity in the LSC. The protein concentration of the cell lysate was also measured using a Pierce™ BCA Protein Assay Kit (Thermo Fisher Scientific, Inc.), which was used to normalize, according to the cell number, the radioactivity in the cell lysate extract. The protein assay was performed in duplicate. Each sample type was assayed in triplicate wells, and each run was performed twice. When the difference in mean uptake between OATP expressing cells and mock cells was more than 2 times, the OATP was judged to be involved in transportation of the substrate. […] Each sample type was assayed in triplicate wells.

Another data set concerns the target T2, human OATP1B1 (Homo sapiens, UniProt Q9Y6L6).
T2 construct: expressed in transfected cells; host or cells: 293FT cells
T2 sequence (Q9Y6L6 1-691): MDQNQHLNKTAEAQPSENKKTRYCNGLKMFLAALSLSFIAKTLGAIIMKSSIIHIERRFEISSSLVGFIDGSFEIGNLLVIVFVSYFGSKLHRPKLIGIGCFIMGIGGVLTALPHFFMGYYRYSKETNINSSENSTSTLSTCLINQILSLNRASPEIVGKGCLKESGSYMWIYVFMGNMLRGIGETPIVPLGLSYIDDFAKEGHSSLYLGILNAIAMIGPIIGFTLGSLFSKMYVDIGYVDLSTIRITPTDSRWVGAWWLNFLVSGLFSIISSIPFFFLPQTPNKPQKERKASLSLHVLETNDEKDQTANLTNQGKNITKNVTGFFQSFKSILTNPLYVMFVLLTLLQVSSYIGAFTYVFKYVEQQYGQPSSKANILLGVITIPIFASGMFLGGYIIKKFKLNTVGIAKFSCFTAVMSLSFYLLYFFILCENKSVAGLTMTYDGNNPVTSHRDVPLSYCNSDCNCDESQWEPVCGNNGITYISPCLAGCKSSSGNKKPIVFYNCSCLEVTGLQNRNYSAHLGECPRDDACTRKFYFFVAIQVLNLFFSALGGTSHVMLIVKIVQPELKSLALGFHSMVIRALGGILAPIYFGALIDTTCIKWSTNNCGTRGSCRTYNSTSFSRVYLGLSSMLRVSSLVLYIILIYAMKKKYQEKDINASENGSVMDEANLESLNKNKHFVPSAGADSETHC
Briefly: Uptake assay for radiolabeled substrates, human OATP1B1 expressing 293FT cells. To be noted: for Ratio of uptake amount relative to the uptake into mock cells: 10‐min incubation. The class given is in vitro ADME. The protocol: as §1, §2

On the set-up of data set [1]: method as in PMID 34908893. To be noted: mice; 90‐day; cited from earlier work.

On to `C[C@]12CC[C@@H]3c4ccc(OS(=O)(=O)O)cc4CC[C@H]3[C@@H]1CCC2=O` [E3S, Estrone 3‐sulfate], for which the “Ratio of uptake amount relative to the uptake into mock cells” value at rat Oatp1a4 (Run_1) worked out at 2.2; at rat Oatp1a4 (Run_2) it was 1.4; on human OATP1B1 (Run_1, mean of 3 replicates), 69.9; at human OATP1B1 (Run_2, mean of 3 replicates), 81.9. For the same compound, on human OATP1B1, the “Uptake, times higher than in mock cells” value was > 50 times.

Consider `C[C@]12CC[C@@H]3c4ccc(O)cc4CC[C@H]3[C@@H]1CC[C@@H]2O[C@@H]1O[C@H](C(=O)O)[C@@H](O)[C@H](O)[C@H]1O` [E217βG, Estradiol 17β‐D‐glucuronide], for which the “Ratio of uptake amount relative to the uptake into mock cells” value at rat Oatp1a4 (Run_1) is recorded as 6.1; at rat Oatp1a4 (Run_2), 10.4; on human OATP1B1 (Run_1, mean of 3 replicates), 48.2; on human OATP1B1 (Run_2, mean of 3 replicates) it was 55.6. Also, the “Uptake, times higher than in mock cells” value on human OATP1B1 is reported as > 50 times.

Regarding `CCOC(=O)COc1ncccc1Oc1cc(-n2c(=O)cc(C(F)(F)F)n(C)c2=O)c(F)cc1Cl` [Epyrifenacil, ethyl[(3‐{2‐chloro‐4‐fluoro‐5‐[3‐methyl‐2,6‐dioxo‐4‐(trifluoromethyl)‐3,6‐dihydropyrimidin‐1(2H)‐yl]phenoxy}pyridin‐2‐yl)oxy]acetate], the Hepatocyte injury entry in data set [1] is recorded as “produced hepatocyte injury”.

As for `Cn1c(C(F)(F)F)cc(=O)n(-c2cc(Oc3cccnc3OCC(=O)O)c(Cl)cc2F)c1=O` [S‐3100‐CA], the “Ratio of uptake amount relative to the uptake into mock cells” value stood at 5.0 at rat Oatp1a4 (Run_1); 4.1 on rat Oatp1a4 (Run_2); 5.7 at human OATP1B1 (Run_1, mean of 3 replicates); 6.2 on human OATP1B1 (Run_2, mean of 3 replicates).
